Experimental data published in PubChem BioAssay (NCI).
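Grown in 96-well plates, cells were treated for 48 hours with each compound at five concentrations. Insufficient inhibition: endpoint recorded as highest concentration tested. The concentration for 50% growth inhibition is given as GI50. The concentration for full growth arrest is given as TGI.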

How the values were obtained:
Test in all cases: inhibition of tumour cell growth, NCI panel, 48 h
CAKI-1 renal = system: CAKI-1 renal
NCI-H460 lung = system: NCI-H460 lung
HOP-92 NSCLC = system: HOP-92 NSCLC
UACC-62 melanoma = system: UACC-62 melanoma
KM12 colon = system: KM12 colon
HOP-62 NSCLC = system: HOP-62 NSCLC
SW-620 colon = system: SW-620 colon
UO-31 renal = system: UO-31 renal
OVCAR-4 ovarian = system: OVCAR-4 ovarian

Row | Compound | GI50 (CAKI-1 renal) [µM] | TGI (CAKI-1 renal) [µM] | GI50 (NCI-H460 lung) [µM] | TGI (NCI-H460 lung) [µM] | GI50 (HOP-92 NSCLC) [µM] | TGI (HOP-92 NSCLC) [µM] | GI50 (UACC-62 melanoma) [µM] | TGI (UACC-62 melanoma) [µM] | GI50 (KM12 colon) [µM] | TGI (KM12 colon) [µM] | GI50 (HOP-62 NSCLC) [µM] | TGI (HOP-62 NSCLC) [µM] | GI50 (SW-620 colon) [µM] | TGI (SW-620 colon) [µM] | GI50 (UO-31 renal) [µM] | TGI (UO-31 renal) [µM] | GI50 (OVCAR-4 ovarian) [µM] | TGI (OVCAR-4 ovarian) [µM]
1 | Cn1cc(-c2csc(-c3c[nH]c4ncccc34)n2)c2cc(Br)cnc21 | 1.56 | > 100 | 2.98 | > 100 | 5.03 | > 100 | 3.47 | > 100 | 5.7 | > 100 | 2.39 | 11.6 | 4.46 | > 100 | – | – | – | –
2 | CCCc1cc(=O)oc2c(C(=O)CC(C)C)c(O)c(CC=C(C)C)c(O)c12 | 8.38 | 33.9 | 8.03 | > 50 | 1.25 | 4.15 | 1.88 | 12.1 | 11 | > 50 | 17.6 | > 50 | 14.9 | > 50 | 12.1 | > 50 | 10.7 | > 50
3 | COc1cc2c(cc1OC)C(CCc1ccc(Cl)cc1)N(C)CC2 (stereo not given) | 10.7 | 31.7 | 17.8 | 40.2 | 13.6 | 92.7 | 20.1 | 44.5 | 19.5 | 38.1 | 32.9 | > 100 | 19.3 | 45.4 | 20.6 | > 100 | 33.9 | > 100
4 | Cc1cccc(CN(C)c2ccc(CO)c(Cl)c2)c1 | 3.71 | 44.3 | 2.04 | 15.8 | 3.46 | 28.2 | 0.301 | 2.96 | 22.5 | 72.4 | 7.41 | 40.6 | 7.18 | > 100 | 11.9 | 64.3 | 2.61 | 25.3
5 | C=C1CC[C@@H]2C(C)(C)[C@@H](O)CC[C@@]2(C)[C@@H]1COc1ccc2ccc(=O)oc2c1 | 13.4 | 55.6 | 14.9 | 32.4 | 8.62 | 24.3 | 10.2 | 23.7 | 12.3 | 29.1 | 15.2 | 35.6 | 18.8 | 44 | 10.2 | 22.9 | 6.97 | 21.6
6 | O=C1NC(=NCC(CO)c2ccccc2)S/C1=C\c1ccc2ncccc2c1 (stereo not given) | > 25 | > 25 | > 16.1 | > 25 | > 25 | > 25 | > 25 | > 25 | 14.7 | > 25 | 23.9 | > 25 | 7.74 | > 25 | > 25 | > 25 | > 22.1 | > 25
7 | COc1cc2c(cc1OCCCCNC(=O)c1cc3ccccc3[nH]1)N=CC1CCCN1C2=O (stereo not given) | – | – | 11.9 | 65.1 | 12.2 | 75.4 | 15.8 | 40.7 | 16.9 | 52.6 | 31.5 | > 100 | 9.84 | 67.6 | 7.16 | 74.1 | 28.2 | 94.4
